pEC50, pIC50: −log10 of the molar value. “Also recorded” adds a separate entry of the source. Where a SMILES comes first, the peptide text is derived from it. The star is where a group is joined. Palmitoyl = CCCCCCCCCCCCCCCC(=O)*
Assays:
TNF alpha = experiment: DENV2 infection in AG129 mice: plasma TNF alpha (ELISA); format: in vivo; conditions: 10 mg/kg I.P, b.i.d; n = 9; vs vehicle control
Protocol: (§1) Administration of compounds and vehicle to animals started twenty four hours before infection (Day −1). Animals were treated daily (From Day-1 to day 4) as per the experimental design shown below in table 3.1.5. Animals were monitored for general clinical signs, morbidity and mortality. Body weights were measured daily.
Cytokine levels (TNF alpha, IL-6 and IL-12) in plasma samples were measured using Enzyme-Linked Immunosorbent Assay (ELISA). Mouse TNF alpha ELISA Kit (Abcam: ab208348), Mouse IL-6 ELISA Kit (Abcam: ab100712), and Mouse IL-12 p40+IL-12 p70 ELISA Kit (Abcam: ab100699) were used to estimate TNF alpha, IL-6 and IL-12, respectively. The assays were performed according to the manufacturer's instructions and was analysed on a TECAN-NanoQuant Plate™ system.
(§2) The Mean±SD Log10PFU/ml, relative Mean±SD spleen weight, Mean±SD biomarker concentrations were estimated in each group. Significant differences between group means and control were analyzed by one-way ANOVA, followed by a Dunnett's multiple comparison test, using GraphPad Prism 5 at 95% confidence levels. A p value of <0.05 was considered as significant.

WNV protease = molecular target: T1, WNV protease (West Nile virus, UniProt P06935); experiment: WNV protease assay (analogous procedure); format: biochemical; conditions: read-out: IC50 for WNNV
T1 construct: a trypsin-like serine protease domain in the N-terminal region of the flaviviral NS3 proteins
T1 sequence (P06935 1424-1463): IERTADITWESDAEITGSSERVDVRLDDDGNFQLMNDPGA
T1 sequence (P06935 1502-1679): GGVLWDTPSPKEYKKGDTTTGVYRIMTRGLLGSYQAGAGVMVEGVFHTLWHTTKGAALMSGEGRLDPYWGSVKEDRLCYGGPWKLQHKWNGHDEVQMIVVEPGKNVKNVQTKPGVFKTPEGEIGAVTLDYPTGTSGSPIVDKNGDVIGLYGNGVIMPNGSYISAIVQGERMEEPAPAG

dengue virus = experiment: In vivo assay using subcutaneous vs intraperitoneal administration, plaque assay in mouse plasma; parameters: species or system mice; conditions: for therapeutic efficacy by plaque assays in mouse plasma through the treatment period / plaque assay in mouse plasma: 20 mg/kg (5h post infection); for efficacy against dengue virus infection after subcutaneous administration: subcutaneous vs other routes of administration, mice
Protocol: FIG. 5B-viral load (plaque assay) in plasma of mice following treatment with vehicle or with compound 113 (20 mg/kg, b.i.d. IP and SC starting at 5h post-infection). Error bars are Mean±SEM.
BHK-21 cells were cultured to approximately 80% confluency in 24-well plates (NUNC, NY, USA). Plasma samples were 10-fold serially diluted in RPMI 1640 (GIBCO). BHK-21 monolayers were infected with 100 μl of each virus dilution. After incubation at 37° C. and 5% CO2 atmosphere for one hour with rocking at 15 min intervals, the medium was decanted and 1 ml of 1% (w/v)carboxymethyl cellulose in RPMI supplemented with 2% FCS was added to each well. After four days incubation at 37° C. in 5% CO2, the cells were fixed with 4% paraformaldehyde and stained for 30 min with […] of 1% crystal violet dissolved in 37% formaldehyde. After thorough rinsing with water, plates were dried and the plaques were scored visually.
These studies were largely performed as in Example 17, with a difference found in the administration of compounds of the invention. […] In this example the compounds of the invention are administered using subcutaneous administration, and compound 113 was used as exemplary for compounds according to the invention.
Results are shown in the table below, where compounds were used at 20 mg/kg (5h post infection). Antiviral activity is much improved after subcutaneous administration, with a longer lasting effect.

[1] = system: Dengue virus 2 (DENV2, ATCC VR-1584); experiment: DENV2 infection in AG129 mice: clinical signs, body and spleen weights; format: in vivo; conditions: for Body weights of mice at the end of the study (Mean ± SD): b.i.d, n = 9; for general clinical signs of treated animals: 20 and 10 mg/kg
Protocol: The purpose of this study was to determine the efficacy of the compounds on Dengue virus 2 (DENV2, ATCC® VR-1584™) infection in AG129 mice.
Six groups of AG129 mice, 6-8 weeks old, with 9 mice per group were used to test compounds according to table 3.1.1. Animal room environment was monitored for temperature and relative humidity twice per day. The temperature range was 22° C.±3° C. and humidity range was 30-70%. The animals were provided with 12 hours light and 12 hours darkness. Feed and drinking water was provided ad libitum. Compounds 43 and 113 were tested.
C6/36 (ATCC(CRL-1660) cell lines were grown in RPMI 1640 medium (Gibco/HiMedia) plus 5% fetal bovine serum at 28° C. Dengue virus type 2 (ATCC®VR-1584™) New Guinea C(NGC, DENV2) was passaged in BHK-21 cell cultures to make sufficient stocks for assay. Virus titer was determined by TCID50 method using BHK-21 cells.
Twenty-four hours post treatment (Day 0), animals were injected intraperitoneally (IP) with 0.2 ml of virus suspension (˜5×10^7/animal).
The vehicle for tested compounds was 5% DMSO+95% (20%) hydroxypropylcyclodextrin. […] Formulations were prepared daily immediately before dosing.
as §1
Animals were sacrificed on day 5 post infection with Isoflurane followed by an overdose of CO2. Spleens were excised, measured and weighed.
as §2

ZIKA protease = molecular target: T2, ZIKA protease (Zika virus, UniProt Q32ZE1); experiment: biochemical; conditions: for inhibition at 1 µM / inhibition at 50 µM: read-out: inhibition of ZIKV
T2 construct: a trypsin-like serine protease domain in the N-terminal region of the flaviviral NS3 proteins
T2 sequence (Q32ZE1 1499-1676): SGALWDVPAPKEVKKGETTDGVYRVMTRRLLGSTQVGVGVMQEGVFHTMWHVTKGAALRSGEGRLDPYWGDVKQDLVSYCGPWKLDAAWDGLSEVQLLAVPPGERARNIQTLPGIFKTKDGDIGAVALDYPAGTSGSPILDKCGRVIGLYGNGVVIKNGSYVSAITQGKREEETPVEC
T2 sequence (Q32ZE1 1421-1460): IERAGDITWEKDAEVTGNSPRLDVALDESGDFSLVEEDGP

SMILES | Plasma concentration of TNF-alpha in mouse plasma after treatment (TNF alpha) | pEC50 (West Nile virus) | pIC50 (WNV protease) | therapeutic efficacy by plaque assays in mouse plasma through the treatment period (dengue virus) | plaque assay in mouse plasma (dengue virus; Day 3, IP) | plaque assay in mouse plasma (dengue virus; Day 3, SC) | plaque assay in mouse plasma (dengue virus; Day 4, IP) | plaque assay in mouse plasma (dengue virus; Day 4, SC) | efficacy against dengue virus infection after subcutaneous administration (dengue virus) | Body weights of mice at the end of the study (Mean ± SD) ([1]; 10 mg/kg I.P) | Body weights of mice at the end of the study (Mean ± SD) ([1]; 20 mg/kg I.P) | general clinical signs of treated animals [1] | pIC50 (ZIKA protease) | inhibition at 1 µM (ZIKA protease) | inhibition at 50 µM (ZIKA protease)
CCCCCCCCCCCCCCCC(=O)N[C@@H](CCCCN)CC(=O)N[C@@H](C)C(=O)N[C@@H](C)CC(=O)N[C@H](CCCCN)C(N)=O (stereo in doubt) [compound 113] | 25.99 ± 9.19 | ≥ 4.60 | ≥ 4.40 | good therapeutic efficacy | 4.70 ± 0.75 | 3.58 ± 0.34 | 4.23 ± 0.52 | 3.26 ± 0.49 | great efficacy; also recorded: improved efficacy | 17.22 ± 1.39 g | 16.89 ± 1.36 g | apparently normal | ≥ 4.60 | ≥ 10% | ≥ 65%
CCCCCCCCCCCCCCCC(=O)N[C@@H](CCCNC(=N)N)C(=O)N[C@@H](CCC(N)=O)C(=O)N[C@@H](Cc1ccccc1)C(N)=O [compound 43] (Palmitoyl-Arg-Gln-Phe-NH2) | 32.45 ± 12.30 | ≥ 4.60 | ≥ 4.40 | good therapeutic efficacy | 4.32 ± 0.45 | 3.43 ± 0.304 | 4.38 ± 0.41 | 3.34 ± 0.40 | great efficacy | 18.78 ± 2.28 g | 18.11 ± 1.45 g | apparently normal | ≥ 4.60 | ≥ 10% | ≥ 65%

Reference: patent publication US20250059231A1, “Protease inhibitors” (priority 2021, published 2025)
